Results on one compound are retold here after patent publication US4929751A, “Vinyl tricarbonyl compounds and methods of making the same” (Yale University, priority 1987, dated 1990).

What all share (assay type): cell-based
One assay concerns OVCAR-5 (ovarian). The experiment in a line: growth inhibition of tumor cell line. The settings on record: for IC50: Homo sapiens, OVCAR-5. The source says: t-Butyl 2,3-dioxo-pent-4-enoate hydrate (A) was contacted with various cell lines as indicated on Table 1 hereinbelow in the column designated as "CELL" or "TUMOR". […]
(§1) As described below, the data in Table 1 serve to display the testing results on disease category selectivity in a bar graph format. Bars projecting to the right of the reference (vertical line of asterisks) indicate greater than average sensitivity to the test compound. Each bar represents one power of ten in sensitivity, so that the results for OVCAR-5 (ovarian tumor) indicate a remarkable […] increase in sensitivity over the reference test.
(§2) Table 1 reports and illustrates the results obtained by testing t-butyl 2,3-dioxo-pent-4-enoate hydrate. The concentration of this compound found to inhibit the growth of each cell line listed under "CELL" by 50% is reported under "LOG(IC50)" as the logarithm of the concentration. The units of concentration are either molarity in which case an "M" is shown in parentheses next to the LOG(IC50) label, or micrograms per ml, in which case a "W" (for weight) is shown in parenthesis. The cell line names are grouped by disease type and the disease type names are listed on the far left.

Another assay deals with PS cell lines. As to the kind of experiment: disease category selectivity.
Source text: as §1, §2
(§3) The graph on the right depicts the data on the left in a format called a "MEAN GRAPH" which is designed to aid in the identification of differential growth inhibition. […] The interest in using this concept of differential growth inhibition as a criterion of activity in the screening system is to encourage the discovery of new types of anticancer agents having greater tissue specificity than cancer chemotherapeutic agents in use today.
(§4) The idea for the Mean Graph resulted from trying to detect differential growth inhibition in a bar graph format Experimentation led to a graph centered at the arithmetic mean (ML) of the logarithm of the IC50'a of all the cell line responses measured for a compound. The Mean Graph is constructed around a vertical reference (indicating ML) by projecting bars to the right or to the left. […] The lengths of the bars are proportional to the differences between the logarithms of the specific cell line IC50's and the overall mean value ML. These lengths represent differences in logarithms which are equivalent to the ratios of the specific IC50's to the geometric mean of all the IC50's. Therefore, a useful property of the Mean Graph format is the ability to compare patterns derived from IC50's measured in different units, e.g, micrograms per ml and molarity. The units cancel in the division process.
(§5) Differential growth inhibition is depicted as a bar projecting some distance to the right of ML. A bar projecting three log units to the right of ML, for example, would reflect a cellular sensitivity 1000 times greater than ML. While any degree of sensitivity greater than ML might theoretically be considered differential growth inhibition, in practice one must consider the experimental error in the measurement and at what point the degree of differential growth inhibition becomes meaningful in biological terms. The three values listed a the bottom of the graph provide the value of ML as "AVE LOG(IC50)", the greatest difference from ML as "DELTA" and the difference between the least sensitive cell line and the most sensitive cell line as the "RANGE".

For assay [1], the system named is RESISTL (resistant lung cancer) cell lines. The experiment in a line: disease category selectivity.
Source text: as §1, §2, §3, §4, §5

The next assay relates to breast cell lines. The experiment in a line: disease category selectivity.
Source text: as §1, §2, §3, §4, §5

Assay [2] concerns central nervous system cell lines. As to the kind of experiment: disease category selectivity. The settings on record: CNS.
Source text: as §1, §2, §3, §4, §5

Another assay has as its system colon cell lines. The experiment in a line: disease category selectivity.
Source text: as §1, §2, §3, §4, §5

For another assay, the system named is leukemia cell lines. As to the kind of experiment: disease category selectivity. The settings on record: LEUK.
Source text: as §1, §2, §3, §4, §5

For the next assay, the system named is melanoma cell lines. As to the kind of experiment: disease category selectivity. The settings on record: MEL.
Source text: as §1, §2, §3, §4, §5

Assay [3] has as its system nonsmall cell lung cancer cell lines. As to the kind of experiment: disease category selectivity. The settings on record: NSCLC.
Source text: as §1, §2, §3, §4, §5

Another assay has as its system renal cell lines. As to the kind of experiment: disease category selectivity.
Source text: as §1, §2, §3, §4, §5

The test system of assay [4] is resistant breast cancer cell lines. The experiment in a line: disease category selectivity. To be noted: RESISTB.
Source text: as §1, §2, §3, §4, §5

The mark [5] stands for this setting: mean LOG(IC50) of category, 1 cell line, read-out: MEAN CAT (converted).
The mark [6] stands for this setting: mean LOG(IC50) of category, 4 cell lines, read-out: MEAN CAT (converted).

Like-named read-outs stand apart in the source and are kept apart here.

For `C=CC(=O)C(O)(O)C(=O)OC(C)(C)C` [t-butyl 2,3-dioxo-pent-4-enoate hydrate], the IC50 in the assay on OVCAR-5 (ovarian) (read-out: IC-50 MEAN) is 2.01 µM; with OVCAR-5 (ovarian) (logarithm of the concentration inhibiting growth by 50%, read-out: LOG(IC50) (converted)), 1.26 µM; in the assay on PS cell lines (setting [5]), 100 µM; in assay [1] (setting [5]) it was 126 µM; in the assay on breast cell lines (setting [5]), 100 µM; in [2] (setting [6]), 100 µM. For the same compound, the IC50 is 63.1 µM in the assay on colon cell lines (setting [6]); 31.6 µM in the assay with leukemia cell lines (mean LOG(IC50) of category, 2 cell lines, read-out: MEAN CAT (converted)); 79.4 µM in the assay with melanoma cell lines (mean LOG(IC50) of category, 5 cell lines, read-out: MEAN CAT (converted)); 79.4 µM in assay [3] (mean LOG(IC50) of category, 10 cell lines, read-out: MEAN CAT (converted)); 79.4 µM with renal cell lines (mean LOG(IC50) of category, 3 cell lines, read-out: MEAN CAT (converted)); 100 µM in assay [4] (setting [5]). The “effectiveness against ovarian cell line OVCAR-5” value in the assay with OVCAR-5 (ovarian) (in words) is recorded as “particularly effective”. The “DIFF CAT” value was 0.1 in the assay on PS cell lines (difference from mean); 0.2 in assay [1] (difference from mean); 0.1 with breast cell lines (difference from mean); 0.2 in assay [2] (difference from mean); -0.1 in the assay with colon cell lines (difference from mean); -0.4 in the assay with leukemia cell lines (difference from mean). Also, the “DIFF CAT” value is on record as 0 in the assay on melanoma cell lines (difference from mean), 0 in [3] (difference from mean), 0.1 in the assay with renal cell lines (difference from mean) and 0.1 in [4] (difference from mean).
